The NIST ThermoML archive (doi:10.1021/je300632p)
± gives the expanded uncertainty stated by the source.

Experiment: xn = mol fraction of the nth substance listed
Details: 101 kPa, Liquid; for viscosity: Falling or rolling sphere viscometry; for mass density: Vibrating tube method

CCCCO [butan-1-ol] + CCO
Details	mass density [kg/m3]	viscosity [mPa·s]
293.15 K, x2 = 0	809.02 ± 0.12	3.066 ± 0.065
293.15 K, x2 = 0.1	807.8 ± 0.12	2.693 ± 0.057
293.15 K, x2 = 0.2	806.38 ± 0.12	2.494 ± 0.053
293.15 K, x2 = 0.3	804.85 ± 0.12	2.242 ± 0.048
293.15 K, x2 = 0.4	803.63 ± 0.12	2.048 ± 0.044
293.15 K, x2 = 0.501	801.61 ± 0.12	1.897 ± 0.04
293.15 K, x2 = 0.602	799.54 ± 0.12	1.725 ± 0.037
293.15 K, x2 = 0.701	797.38 ± 0.12	1.574 ± 0.033
293.15 K, x2 = 0.801	795.11 ± 0.12	1.445 ± 0.031
293.15 K, x2 = 0.9	792.58 ± 0.12	1.301 ± 0.028
298.15 K, x2 = 0	805.24 ± 0.12	2.534 ± 0.054
298.15 K, x2 = 0.1	803.98 ± 0.12	2.376 ± 0.051
298.15 K, x2 = 0.2	802.53 ± 0.12	2.214 ± 0.047
298.15 K, x2 = 0.3	800.97 ± 0.12	1.993 ± 0.042
298.15 K, x2 = 0.4	799.71 ± 0.12	1.826 ± 0.039
298.15 K, x2 = 0.501	797.65 ± 0.12	1.705 ± 0.036
298.15 K, x2 = 0.602	795.54 ± 0.12	1.55 ± 0.033
298.15 K, x2 = 0.701	793.33 ± 0.12	1.414 ± 0.03
298.15 K, x2 = 0.801	790.98 ± 0.12	1.302 ± 0.028
298.15 K, x2 = 0.9	788.39 ± 0.12	1.18 ± 0.025
303.15 K, x2 = 0	801.42 ± 0.12	2.234 ± 0.047
303.15 K, x2 = 0.1	800.13 ± 0.12	2.103 ± 0.045
303.15 K, x2 = 0.2	798.65 ± 0.12	1.967 ± 0.042
303.15 K, x2 = 0.3	797.06 ± 0.12	1.777 ± 0.038
303.15 K, x2 = 0.4	795.75 ± 0.12	1.633 ± 0.035
303.15 K, x2 = 0.501	793.66 ± 0.12	1.533 ± 0.033
303.15 K, x2 = 0.602	791.5 ± 0.12	1.397 ± 0.03
303.15 K, x2 = 0.701	789.23 ± 0.12	1.279 ± 0.027
303.15 K, x2 = 0.801	786.82 ± 0.12	1.184 ± 0.025
303.15 K, x2 = 0.9	784.17 ± 0.13	1.072 ± 0.023
308.15 K, x2 = 0	797.57 ± 0.12	1.978 ± 0.042
308.15 K, x2 = 0.1	796.25 ± 0.12	1.868 ± 0.04
308.15 K, x2 = 0.2	794.74 ± 0.12	1.754 ± 0.037
308.15 K, x2 = 0.3	793.12 ± 0.12	1.591 ± 0.034
308.15 K, x2 = 0.4	791.76 ± 0.12	1.465 ± 0.031
308.15 K, x2 = 0.501	789.63 ± 0.12	1.381 ± 0.029
308.15 K, x2 = 0.602	787.42 ± 0.12	1.262 ± 0.027
308.15 K, x2 = 0.701	785.1 ± 0.13	1.159 ± 0.025
308.15 K, x2 = 0.801	782.64 ± 0.13	1.076 ± 0.023
308.15 K, x2 = 0.9	779.92 ± 0.13	0.977 ± 0.021
313.15 K, x2 = 0	793.68 ± 0.12	1.756 ± 0.037
313.15 K, x2 = 0.1	792.33 ± 0.12	1.664 ± 0.035
313.15 K, x2 = 0.2	790.79 ± 0.12	1.569 ± 0.033
313.15 K, x2 = 0.3	789.13 ± 0.12	1.427 ± 0.03
313.15 K, x2 = 0.4	787.74 ± 0.12	1.318 ± 0.028
313.15 K, x2 = 0.501	785.57 ± 0.12	1.246 ± 0.026
313.15 K, x2 = 0.602	783.31 ± 0.13	1.142 ± 0.024
313.15 K, x2 = 0.701	780.94 ± 0.13	1.052 ± 0.022
313.15 K, x2 = 0.801	778.41 ± 0.13	0.98 ± 0.021
313.15 K, x2 = 0.9	775.63 ± 0.13	0.892 ± 0.019
318.15 K, x2 = 0	789.75 ± 0.12	1.564 ± 0.033
318.15 K, x2 = 0.1	788.37 ± 0.12	1.487 ± 0.032
318.15 K, x2 = 0.2	786.8 ± 0.12	1.407 ± 0.03
318.15 K, x2 = 0.3	785.11 ± 0.12	1.283 ± 0.027
318.15 K, x2 = 0.4	783.67 ± 0.12	1.189 ± 0.025
318.15 K, x2 = 0.501	781.46 ± 0.13	1.127 ± 0.024
318.15 K, x2 = 0.602	779.15 ± 0.13	1.037 ± 0.022
318.15 K, x2 = 0.701	776.73 ± 0.13	0.957 ± 0.02
318.15 K, x2 = 0.801	774.14 ± 0.13	0.895 ± 0.019
318.15 K, x2 = 0.9	771.28 ± 0.13	0.815 ± 0.017
323.15 K, x2 = 0	785.78 ± 0.12	1.397 ± 0.03
323.15 K, x2 = 0.1	784.36 ± 0.12	1.333 ± 0.028
323.15 K, x2 = 0.2	782.76 ± 0.12	1.265 ± 0.027
323.15 K, x2 = 0.3	781.03 ± 0.13	1.158 ± 0.025
323.15 K, x2 = 0.4	779.54 ± 0.13	1.074 ± 0.023
323.15 K, x2 = 0.501	777.29 ± 0.13	1.024 ± 0.022
323.15 K, x2 = 0.602	774.95 ± 0.13	0.943 ± 0.02
323.15 K, x2 = 0.701	772.47 ± 0.13	0.874 ± 0.019
323.15 K, x2 = 0.801	769.82 ± 0.13	0.817 ± 0.017
323.15 K, x2 = 0.9	766.89 ± 0.13	0.748 ± 0.016
328.15 K, x2 = 0	781.75 ± 0.12	1.252 ± 0.027
328.15 K, x2 = 0.1	780.31 ± 0.12	1.199 ± 0.025
328.15 K, x2 = 0.2	778.67 ± 0.13	1.141 ± 0.024
328.15 K, x2 = 0.3	776.91 ± 0.13	1.047 ± 0.022
328.15 K, x2 = 0.4	775.38 ± 0.13	0.974 ± 0.021
328.15 K, x2 = 0.501	773.09 ± 0.13	0.93 ± 0.02
328.15 K, x2 = 0.602	770.69 ± 0.13	0.86 ± 0.018
328.15 K, x2 = 0.701	768.15 ± 0.13	0.798 ± 0.017
328.15 K, x2 = 0.801	765.44 ± 0.13	0.749 ± 0.016
328.15 K, x2 = 0.9	762.45 ± 0.13	0.686 ± 0.015

CCO [ethanol] + CCCCCO
x1 = 1
Details	mass density [kg/m3]	viscosity [mPa·s]
293.15 K	790.13 ± 0.12	1.151 ± 0.012
298.15 K	785.86 ± 0.13	1.069 ± 0.011
303.15 K	781.56 ± 0.13	0.973 ± 0.011
308.15 K	777.23 ± 0.13	0.888 ± 0.01
313.15 K	772.86 ± 0.13	0.813 ± 0.01
318.15 K	768.44 ± 0.13	0.755 ± 0.01
323.15 K	763.97 ± 0.13	0.684 ± 0.009
328.15 K	759.44 ± 0.13	0.63 ± 0.009

CCO [ethanol] + CCCCO
x1 = 1
Details	mass density [kg/m3]	viscosity [mPa·s]
293.15 K	790.13 ± 0.12	1.151 ± 0.024
298.15 K	785.86 ± 0.13	1.069 ± 0.023
303.15 K	781.56 ± 0.13	0.973 ± 0.021
308.15 K	777.23 ± 0.13	0.888 ± 0.019
313.15 K	772.86 ± 0.13	0.813 ± 0.017
318.15 K	768.44 ± 0.13	0.755 ± 0.016
323.15 K	763.97 ± 0.13	0.684 ± 0.015
328.15 K	759.44 ± 0.13	0.63 ± 0.013

CCO [ethanol] + CCCO
x1 = 1
Details	mass density [kg/m3]	viscosity [mPa·s]
293.15 K	790.13 ± 0.12	1.151 ± 0.012
298.15 K	785.86 ± 0.13	1.069 ± 0.011
303.15 K	781.56 ± 0.13	0.973 ± 0.011
308.15 K	777.23 ± 0.13	0.888 ± 0.01
313.15 K	772.86 ± 0.13	0.813 ± 0.01
318.15 K	768.44 ± 0.13	0.755 ± 0.01
323.15 K	763.97 ± 0.13	0.684 ± 0.009
328.15 K	759.44 ± 0.13	0.63 ± 0.009
